Data from ChEMBL document CHEMBL4507258 (2021).

Experiments:
[1] = molecular target: Ribosomal protein S6 kinase alpha-6 (Homo sapiens) (UniProt Q9UK32); details: Compound concentration 1000.0 nM
[2] = molecular target: Mitogen-activated protein kinase kinase kinase 4 (Homo sapiens) (UniProt Q9Y6R4); details: Compound concentration 1000.0 nM
[3] = molecular target: Homeodomain-interacting protein kinase 3 (Homo sapiens) (UniProt Q9H422); details: Compound concentration 1000.0 nM
[4] = molecular target: Serine/threonine-protein kinase LATS1 (Homo sapiens) (UniProt O95835); details: Compound concentration 1000.0 nM
[5] = test system: Tyrosine-protein kinase ABL1 (Homo sapiens), P00519 [F317L]; details: Compound concentration 1000.0 nM
[6] = molecular target: Cyclin-dependent kinase 9 (Homo sapiens) (UniProt P50750); details: Compound concentration 1000.0 nM
[7] = molecular target: Cyclin-dependent kinase-like 1 (Homo sapiens) (UniProt Q00532); details: Compound concentration 1000.0 nM
[8] = molecular target: Protein kinase C eta type (Homo sapiens) (UniProt P24723); details: Compound concentration 1000.0 nM
[9] = molecular target: Mitogen-activated protein kinase kinase kinase kinase 4 (Homo sapiens) (UniProt O95819); details: Compound concentration 1000.0 nM
[10] = molecular target: Insulin-like growth factor 1 receptor (Homo sapiens) (UniProt P08069); details: Compound concentration 1000.0 nM
Chain of Insulin-like growth factor 1 receptor (Homo sapiens) (P08069 31-736 limits assumed): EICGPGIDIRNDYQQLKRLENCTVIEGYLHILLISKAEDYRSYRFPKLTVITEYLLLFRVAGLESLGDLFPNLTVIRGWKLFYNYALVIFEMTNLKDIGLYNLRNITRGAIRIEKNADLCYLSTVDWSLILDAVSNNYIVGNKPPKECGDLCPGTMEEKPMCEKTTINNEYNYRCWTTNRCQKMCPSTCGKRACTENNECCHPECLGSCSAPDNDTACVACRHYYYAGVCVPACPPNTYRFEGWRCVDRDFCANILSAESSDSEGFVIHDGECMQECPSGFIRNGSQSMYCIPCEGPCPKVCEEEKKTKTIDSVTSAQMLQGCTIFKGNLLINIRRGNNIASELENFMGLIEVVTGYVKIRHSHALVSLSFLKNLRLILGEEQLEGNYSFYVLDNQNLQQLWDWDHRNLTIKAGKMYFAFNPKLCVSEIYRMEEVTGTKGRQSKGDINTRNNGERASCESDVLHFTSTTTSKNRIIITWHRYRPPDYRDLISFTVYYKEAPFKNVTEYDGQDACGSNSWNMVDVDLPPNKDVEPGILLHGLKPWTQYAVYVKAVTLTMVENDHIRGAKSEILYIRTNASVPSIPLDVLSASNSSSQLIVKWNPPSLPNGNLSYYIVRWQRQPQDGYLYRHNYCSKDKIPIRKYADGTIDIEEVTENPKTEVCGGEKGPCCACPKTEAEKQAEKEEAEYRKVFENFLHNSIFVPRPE
Chain of Insulin-like growth factor 1 receptor (Homo sapiens) (P08069 741-1367 limits assumed): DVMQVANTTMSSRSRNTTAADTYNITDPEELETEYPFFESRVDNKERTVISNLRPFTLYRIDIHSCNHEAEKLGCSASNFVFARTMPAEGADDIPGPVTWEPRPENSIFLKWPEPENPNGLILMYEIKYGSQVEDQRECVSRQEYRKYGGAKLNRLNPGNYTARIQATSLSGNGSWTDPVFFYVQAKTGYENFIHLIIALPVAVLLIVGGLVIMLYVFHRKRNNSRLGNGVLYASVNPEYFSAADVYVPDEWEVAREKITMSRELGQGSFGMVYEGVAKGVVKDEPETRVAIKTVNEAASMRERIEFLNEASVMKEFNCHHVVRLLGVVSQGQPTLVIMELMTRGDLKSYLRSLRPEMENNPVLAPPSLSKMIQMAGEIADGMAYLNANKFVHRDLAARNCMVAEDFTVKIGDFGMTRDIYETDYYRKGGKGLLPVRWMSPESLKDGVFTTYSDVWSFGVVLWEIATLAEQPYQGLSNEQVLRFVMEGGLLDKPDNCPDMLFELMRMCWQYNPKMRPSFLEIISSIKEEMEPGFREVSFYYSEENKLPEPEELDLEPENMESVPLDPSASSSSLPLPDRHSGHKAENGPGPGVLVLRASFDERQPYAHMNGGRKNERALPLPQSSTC

[11] = molecular target: Mitogen-activated protein kinase 9 (Homo sapiens) (UniProt P45984); details: Compound concentration 1000.0 nM
[12] = molecular target: Ephrin type-B receptor 1 (Homo sapiens) (UniProt P54762); details: Compound concentration 1000.0 nM
[13] = molecular target: Mitogen-activated protein kinase kinase kinase kinase 1 (Homo sapiens) (UniProt Q92918); details: Compound concentration 1000.0 nM
[14] = molecular target: Serine/threonine-protein kinase OSR1 (Homo sapiens) (UniProt O95747); details: Compound concentration 1000.0 nM
Chain of Serine/threonine-protein kinase OSR1 (Homo sapiens) (O95747 2-527 limits assumed): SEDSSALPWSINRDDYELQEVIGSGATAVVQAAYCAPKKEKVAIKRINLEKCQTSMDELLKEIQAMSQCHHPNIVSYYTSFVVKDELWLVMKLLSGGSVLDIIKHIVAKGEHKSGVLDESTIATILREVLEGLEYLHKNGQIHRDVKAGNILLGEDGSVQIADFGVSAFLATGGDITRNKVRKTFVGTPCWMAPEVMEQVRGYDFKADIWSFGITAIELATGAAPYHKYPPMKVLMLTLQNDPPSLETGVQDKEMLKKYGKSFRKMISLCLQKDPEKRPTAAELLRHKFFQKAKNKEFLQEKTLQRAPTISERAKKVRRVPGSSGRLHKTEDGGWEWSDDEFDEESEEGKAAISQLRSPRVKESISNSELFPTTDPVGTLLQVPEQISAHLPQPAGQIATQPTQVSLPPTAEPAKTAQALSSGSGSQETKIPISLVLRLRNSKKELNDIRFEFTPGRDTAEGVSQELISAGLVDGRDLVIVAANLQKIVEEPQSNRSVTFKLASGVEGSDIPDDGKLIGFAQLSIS

[15] = molecular target: Cyclin-dependent kinase 19 (Homo sapiens) (UniProt Q9BWU1); details: Compound concentration 1000.0 nM
[16] = molecular target: D(1A) dopamine receptor (Homo sapiens) (UniProt P21728); details: Compound concentration 10.0 uM
Chain of D(1A) dopamine receptor (Homo sapiens) (P21728 whole entry): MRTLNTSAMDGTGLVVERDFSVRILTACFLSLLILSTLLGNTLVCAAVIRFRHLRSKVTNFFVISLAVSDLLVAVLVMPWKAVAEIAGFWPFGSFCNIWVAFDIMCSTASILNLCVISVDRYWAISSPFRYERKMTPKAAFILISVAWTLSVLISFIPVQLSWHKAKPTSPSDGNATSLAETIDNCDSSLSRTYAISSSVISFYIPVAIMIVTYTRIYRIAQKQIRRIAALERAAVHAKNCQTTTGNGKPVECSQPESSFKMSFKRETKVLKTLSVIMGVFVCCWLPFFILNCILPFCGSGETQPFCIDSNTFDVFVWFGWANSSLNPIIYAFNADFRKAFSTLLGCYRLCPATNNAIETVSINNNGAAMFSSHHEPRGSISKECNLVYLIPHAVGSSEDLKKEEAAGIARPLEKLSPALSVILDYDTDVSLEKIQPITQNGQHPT

[17] = molecular target: Dual specificity testis-specific protein kinase 1 (Homo sapiens) (UniProt Q15569); details: Compound concentration 1000.0 nM
[18] = molecular target: Casein kinase II subunit alpha (Homo sapiens) (UniProt P68400); details: Compound concentration 1000.0 nM
[19] = molecular target: Mast/stem cell growth factor receptor Kit (Homo sapiens) (UniProt P10721); details: Compound concentration 1000.0 nM
[20] = molecular target: STE20-like serine/threonine-protein kinase (Homo sapiens) (UniProt Q9H2G2); details: Compound concentration 1000.0 nM
[21] = molecular target: Serine/threonine-protein kinase LATS2 (Homo sapiens) (UniProt Q9NRM7); details: Compound concentration 1000.0 nM
[22] = molecular target: Phosphorylase b kinase regulatory subunit alpha, liver isoform (Homo sapiens) (UniProt P46019); details: Compound concentration 1000.0 nM
[23] = molecular target: Serine/threonine-protein kinase Chk1 (Homo sapiens) (UniProt O14757); details: Compound concentration 1000.0 nM
[24] = molecular target: Tyrosine-protein kinase ABL2 (Homo sapiens) (UniProt P42684); details: Compound concentration 1000.0 nM
[25] = molecular target: Serine/threonine-protein kinase MRCK beta (Homo sapiens) (UniProt Q9Y5S2); details: Compound concentration 1000.0 nM
[26] = molecular target: Serine/threonine-protein kinase WNK3 (Homo sapiens) (UniProt Q9BYP7); details: Compound concentration 1000.0 nM
[27] = molecular target: Serine/threonine-protein kinase TBK1 (Homo sapiens) (UniProt Q9UHD2); details: Compound concentration 1000.0 nM
[28] = molecular target: Ribosomal protein S6 kinase alpha-1 (Homo sapiens) (UniProt Q15418); details: Compound concentration 1000.0 nM
[29] = molecular target: Myosin light chain kinase 2, skeletal/cardiac muscle (Homo sapiens) (UniProt Q9H1R3); details: Compound concentration 1000.0 nM
[30] = molecular target: Serine/threonine-protein kinase 24 (Homo sapiens) (UniProt Q9Y6E0); details: Compound concentration 1000.0 nM
[31] = molecular target: Mitogen-activated protein kinase 7 (Homo sapiens) (UniProt Q13164); details: Compound concentration 1000.0 nM
[32] = molecular target: Receptor tyrosine-protein kinase erbB-4 (Homo sapiens) (UniProt Q15303); details: Compound concentration 1000.0 nM
[33] = molecular target: Dual specificity protein kinase CLK3 (Homo sapiens) (UniProt P49761); details: Compound concentration 1000.0 nM
Chain of Dual specificity protein kinase CLK3 (Homo sapiens) (P49761 whole entry, looked up): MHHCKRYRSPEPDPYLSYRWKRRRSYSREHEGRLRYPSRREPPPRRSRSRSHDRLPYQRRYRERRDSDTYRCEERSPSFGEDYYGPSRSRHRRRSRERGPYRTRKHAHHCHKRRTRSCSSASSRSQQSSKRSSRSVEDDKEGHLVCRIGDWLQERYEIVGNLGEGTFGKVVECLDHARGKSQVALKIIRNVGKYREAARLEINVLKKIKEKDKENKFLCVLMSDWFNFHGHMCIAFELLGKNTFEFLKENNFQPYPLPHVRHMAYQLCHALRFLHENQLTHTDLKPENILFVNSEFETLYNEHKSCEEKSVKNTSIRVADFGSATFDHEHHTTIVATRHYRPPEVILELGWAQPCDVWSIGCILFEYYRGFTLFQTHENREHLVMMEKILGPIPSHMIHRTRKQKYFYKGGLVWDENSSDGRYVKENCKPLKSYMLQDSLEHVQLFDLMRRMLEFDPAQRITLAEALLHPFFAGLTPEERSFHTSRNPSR

[34] = molecular target: Inhibitor of nuclear factor kappa-B kinase subunit beta (Homo sapiens) (UniProt O14920); details: Compound concentration 1000.0 nM
[35] = molecular target: Serine/threonine-protein kinase pim-1 (Homo sapiens) (UniProt P11309); details: Compound concentration 1000.0 nM
Chain of Serine/threonine-protein kinase pim-1 (Homo sapiens) (P11309 whole entry, looked up): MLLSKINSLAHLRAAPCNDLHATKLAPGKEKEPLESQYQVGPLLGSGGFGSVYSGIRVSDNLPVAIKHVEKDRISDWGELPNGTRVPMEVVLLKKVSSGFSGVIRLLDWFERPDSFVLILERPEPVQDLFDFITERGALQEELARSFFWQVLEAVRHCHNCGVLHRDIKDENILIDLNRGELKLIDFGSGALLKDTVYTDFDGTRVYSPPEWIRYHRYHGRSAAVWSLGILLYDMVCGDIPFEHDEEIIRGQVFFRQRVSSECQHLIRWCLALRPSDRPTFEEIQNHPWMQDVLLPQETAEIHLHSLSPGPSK

[36] = test system: Mast/stem cell growth factor receptor Kit (Homo sapiens), P10721 [V559D]; details: Compound concentration 1000.0 nM
[37] = molecular target: Dual specificity tyrosine-phosphorylation-regulated kinase 1B (Homo sapiens) (UniProt Q9Y463); details: Compound concentration 1000.0 nM
[38] = molecular target: Ephrin type-A receptor 5 (Homo sapiens) (UniProt P54756); details: Compound concentration 1000.0 nM
[39] = molecular target: Ephrin type-B receptor 3 (Homo sapiens) (UniProt P54753); details: Compound concentration 1000.0 nM
[40] = molecular target: Cyclin-dependent kinase 13 (Homo sapiens) (UniProt Q14004); details: Compound concentration 1000.0 nM
[41] = molecular target: Tyrosine-protein kinase Fes/Fps (Homo sapiens) (UniProt P07332); details: Compound concentration 1000.0 nM
Chain of Tyrosine-protein kinase Fes/Fps (Homo sapiens) (P07332 whole entry): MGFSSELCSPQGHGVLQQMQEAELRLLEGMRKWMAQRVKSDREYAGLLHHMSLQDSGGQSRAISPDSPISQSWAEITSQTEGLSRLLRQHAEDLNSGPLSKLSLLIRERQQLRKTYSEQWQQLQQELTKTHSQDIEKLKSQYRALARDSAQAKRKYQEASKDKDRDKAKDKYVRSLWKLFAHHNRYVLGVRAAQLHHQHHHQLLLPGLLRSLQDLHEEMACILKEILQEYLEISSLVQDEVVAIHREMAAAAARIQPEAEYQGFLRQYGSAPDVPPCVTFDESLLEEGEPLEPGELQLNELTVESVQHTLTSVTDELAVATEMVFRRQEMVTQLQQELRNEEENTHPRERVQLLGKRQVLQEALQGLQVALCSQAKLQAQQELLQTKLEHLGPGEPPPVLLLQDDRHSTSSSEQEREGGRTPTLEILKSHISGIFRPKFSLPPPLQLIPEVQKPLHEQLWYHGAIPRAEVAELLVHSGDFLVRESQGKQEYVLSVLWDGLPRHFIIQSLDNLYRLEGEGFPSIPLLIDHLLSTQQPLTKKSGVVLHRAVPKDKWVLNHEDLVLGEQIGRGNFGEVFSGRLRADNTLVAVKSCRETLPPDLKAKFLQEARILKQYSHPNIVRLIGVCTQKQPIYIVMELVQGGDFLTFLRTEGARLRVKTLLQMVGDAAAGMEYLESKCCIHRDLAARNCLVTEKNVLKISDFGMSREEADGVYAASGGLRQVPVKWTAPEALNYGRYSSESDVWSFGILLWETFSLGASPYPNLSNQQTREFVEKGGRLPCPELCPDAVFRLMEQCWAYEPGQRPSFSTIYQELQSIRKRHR

[42] = test system: Mast/stem cell growth factor receptor Kit (Homo sapiens), P10721 [D816V]; details: Compound concentration 1000.0 nM
[43] = molecular target: TRAF2 and NCK-interacting protein kinase (Homo sapiens) (UniProt Q9UKE5); details: Compound concentration 1000.0 nM
[44] = molecular target: Vascular endothelial growth factor receptor 3 (Homo sapiens) (UniProt P35916); details: Compound concentration 1000.0 nM
[45] = molecular target: Tyrosine-protein kinase Mer (Homo sapiens) (UniProt Q12866); details: Compound concentration 1000.0 nM
Chain of Tyrosine-protein kinase Mer (Homo sapiens) (Q12866 whole entry): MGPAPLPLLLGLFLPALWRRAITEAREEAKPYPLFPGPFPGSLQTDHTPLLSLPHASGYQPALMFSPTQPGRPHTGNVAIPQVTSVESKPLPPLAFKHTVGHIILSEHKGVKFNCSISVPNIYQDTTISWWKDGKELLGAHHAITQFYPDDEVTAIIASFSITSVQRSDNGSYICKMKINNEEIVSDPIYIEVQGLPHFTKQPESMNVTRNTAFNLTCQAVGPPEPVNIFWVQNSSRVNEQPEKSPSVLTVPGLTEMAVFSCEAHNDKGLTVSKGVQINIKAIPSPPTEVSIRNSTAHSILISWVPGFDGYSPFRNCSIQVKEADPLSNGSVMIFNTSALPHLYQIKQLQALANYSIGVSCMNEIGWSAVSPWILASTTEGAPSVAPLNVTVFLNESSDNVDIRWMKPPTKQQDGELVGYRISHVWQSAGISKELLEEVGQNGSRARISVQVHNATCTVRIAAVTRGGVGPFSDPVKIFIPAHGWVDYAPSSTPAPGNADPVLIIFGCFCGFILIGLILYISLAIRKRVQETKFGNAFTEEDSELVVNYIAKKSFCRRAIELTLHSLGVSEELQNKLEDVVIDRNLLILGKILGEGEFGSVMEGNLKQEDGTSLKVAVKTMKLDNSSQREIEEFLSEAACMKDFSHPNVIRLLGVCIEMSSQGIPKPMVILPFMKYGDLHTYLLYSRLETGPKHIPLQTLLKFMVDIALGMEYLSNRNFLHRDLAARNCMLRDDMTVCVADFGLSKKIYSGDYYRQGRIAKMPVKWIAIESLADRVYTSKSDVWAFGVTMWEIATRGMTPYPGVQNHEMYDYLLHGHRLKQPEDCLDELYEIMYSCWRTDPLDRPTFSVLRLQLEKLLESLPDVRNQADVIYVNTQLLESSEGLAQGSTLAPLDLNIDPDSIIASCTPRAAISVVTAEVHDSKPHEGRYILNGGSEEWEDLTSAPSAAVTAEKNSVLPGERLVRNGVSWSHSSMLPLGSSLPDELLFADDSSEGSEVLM

Compound: CCCCN(CCCC)C(=O)CN1C[C@@H](c2cc(OC)c3c(c2)OCO3)[C@H](C(=O)O)[C@H]1CC(C)(C)CCC [A-545]
- residual activity [1]: 96.6%
- residual activity [2]: 85.5%
- residual activity [3]: 100%
- residual activity [4]: 75.2%
- residual activity [5]: 93.5%
- residual activity [6]: 100%
- residual activity [7]: 74.9%
- residual activity [8]: 0%
- residual activity [9]: 88.9%
- residual activity [10]: 97%
- residual activity [11]: 100%
- residual activity [12]: 100%
- residual activity [13]: 99.6%
- residual activity [14]: 94%
- residual activity [15]: 99.6%
- inhibition [16]: 16.6%
- residual activity [17]: 94.3%
- residual activity [18]: 88.6%
- residual activity [19]: 94.9%
- residual activity [20]: 92.5%
- residual activity [21]: 100%
- residual activity [22]: 100%
- residual activity [23]: 100%
- residual activity [24]: 100%
- residual activity [25]: 100%
- residual activity [26]: 65.5%
- residual activity [27]: 100%
- residual activity [28]: 91.3%
- residual activity [29]: 100%
- residual activity [30]: 93.9%
- residual activity [31]: 100%
- residual activity [32]: 95%
- residual activity [33]: 100%
- residual activity [34]: 100%
- residual activity [35]: 91.7%
- residual activity [36]: 100%
- residual activity [37]: 95%
- residual activity [38]: 81.9%
- residual activity [39]: 100%
- residual activity [40]: 100%
- residual activity [41]: 100%
- residual activity [42]: 95.8%
- residual activity [43]: 86%
- residual activity [44]: 100%
- residual activity [45]: 100%

Compound: CCCCN(CCCC)C(=O)CN1C[C@H](c2cc(OC)c3c(c2)OCO3)[C@@H](C(=O)O)[C@@H]1CC(C)(C)CCC [ABT-546]
- residual activity [1]: 76.4%
- residual activity [2]: 88.7%
- residual activity [3]: 100%
- residual activity [4]: 100%
- residual activity [5]: 96.7%
- residual activity [6]: 100%
- residual activity [7]: 100%
- residual activity [8]: 100%
- residual activity [9]: 100%
- residual activity [10]: 100%
- residual activity [11]: 100%
- residual activity [12]: 100%
- residual activity [13]: 90.6%
- residual activity [14]: 89.5%
- residual activity [15]: 100%
- inhibition [16]: 4.66%
- residual activity [17]: 100%
- residual activity [18]: 68.5%
- residual activity [19]: 92.3%
- residual activity [20]: 100%
- residual activity [21]: 100%
- residual activity [22]: 100%
- residual activity [23]: 100%
- residual activity [24]: 100%
- residual activity [25]: 100%
- residual activity [26]: 100%
- residual activity [27]: 100%
- residual activity [28]: 97.7%
- residual activity [29]: 100%
- residual activity [30]: 100%
- residual activity [31]: 100%
- residual activity [32]: 100%
- residual activity [33]: 100%
- residual activity [34]: 81.5%
- residual activity [35]: 100%
- residual activity [36]: 96.1%
- residual activity [37]: 100%
- residual activity [38]: 100%
- residual activity [39]: 100%
- residual activity [40]: 52.5%
- residual activity [41]: 100%
- residual activity [42]: 100%
- residual activity [43]: 100%
- residual activity [44]: 100%
- residual activity [45]: 100%
